Drawing on PubChem BioAssay (NCI), this text covers TGI for 17 compounds.

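Step 1: Grow cells in 96-well plates. Step 2: Expose to compound for 48 hours at 5 concentrations. Step 3: Interpolate endpoints linearly; if unreached, use highest concentration. TGI denotes the concentration required for complete inhibition of growth.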

Test systems include DMS 273 small cell lung; OVCAR-4 ovarian; HL-60(TB) leukemia; HT29 colon; HOP-18 NSCLC; DMS 114 small cell lung; XF 498 CNS; MDA-N; SK-OV-3 ovarian; HS 578T breast; KM20L2 colon; SNB-78 CNS; LXFL 529 NSCLC; M19-MEL melanoma; DLD-1 colon.
Common to all, as to assay: DTP human tumour cell line panel, 48 h

One may read the TGI as the concentration at which net growth stops. Higher therefore signals lower sensitivity of the cells. Turning to `c1cnc2c(c1)-n1cccc1C1(CCCCC1)NN2`, the TGI with DMS 273 small cell lung, with OVCAR-4 ovarian, in the test with HL-60(TB) leukemia, in the test with HT29 colon, with HOP-18 NSCLC and with DMS 114 small cell lung was > 100 µM in each case. In addition, in the test on XF 498 CNS, the TGI is > 100 µM.
With `Cc1ccccc1NC(=O)O/N=C(\Cl)C(C)C`, the concentration for total growth inhibition (TGI) in the test with MDA-N is 8.58 µM; in the test on SK-OV-3 ovarian it was 32.8 µM; in the test on HS 578T breast, 58.5 µM; in the test with OVCAR-4 ovarian it was 23.2 µM; in the test on HL-60(TB) leukemia it was > 22 µM; with HT29 colon, 11.7 µM.
Take `Nc1[nH]c(=O)nc2c1ncn2C1OC(CO)C(O)C1O` (centres undefined): the concentration for total growth inhibition (TGI) in the test on MDA-N is > 100 µM; in the test on SK-OV-3 ovarian, > 100 µM; in the test on HS 578T breast it was > 100 µM; with OVCAR-4 ovarian, > 100 µM; with HL-60(TB) leukemia, 54.9 µM; with HT29 colon, > 100 µM.
Consider `NC(=O)CCC(N=c1c2ccccc2n(O)c2ccccc12)C(=O)O` (centres undefined), for which the concentration for total growth inhibition (TGI) in the test on KM20L2 colon, with DMS 273 small cell lung, in the test on SK-OV-3 ovarian, in the test with SNB-78 CNS, in the test with LXFL 529 NSCLC and with M19-MEL melanoma was > 100 µM throughout. Moreover, the TGI with DLD-1 colon was > 100 µM; in the test on OVCAR-4 ovarian it was > 100 µM; in the test with HL-60(TB) leukemia it was > 100 µM; in the test on HOP-18 NSCLC, 98.4 µM; in the test on DMS 114 small cell lung, > 100 µM.
`CC(=O)NC1C(OCc2ccccc2)OC(CO)C(O)C1OC(C)C(=O)N[C@@H](C)C(=O)N[C@H](CCC(=O)NCCNCCNc1c2ccccc2nc2cccc([N+](=O)[O-])c12)C(N)=O` (some centres undefined): the TGI in the test with MDA-N was 0.305 µM; in the test on SK-OV-3 ovarian it was 2.05 µM; in the test with HS 578T breast, 5.13 µM; in the test with OVCAR-4 ovarian, 0.0817 µM; with HL-60(TB) leukemia, > 80.5 µM; in the test on HT29 colon, 0.668 µM.
For `Clc1ccc2c(c1)N(CCCN1CCCC13CCCCC3)c1ccccc1S2`, the TGI with MDA-N was determined as 26.2 µM; in the test on SK-OV-3 ovarian, 57.7 µM; with HS 578T breast it was 34.2 µM; in the test with OVCAR-4 ovarian, 41.7 µM; in the test with HL-60(TB) leukemia, 5.18 µM; in the test with HT29 colon it was 15.7 µM.
In the case of `O=P1(N(CCCl)CCCl)Oc2ccc(Cl)cc2C(C(Cl)(Cl)Cl)c2cc(Cl)ccc2O1` (centres undefined), the TGI was 87.7 µM with MDA-N; > 100 µM with SK-OV-3 ovarian; 41 µM in the test with HS 578T breast; > 100 µM in the test on OVCAR-4 ovarian; > 100 µM in the test on HL-60(TB) leukemia; 18.9 µM with HT29 colon.
In the case of `O=C1/C(=C/c2ccccc2)Oc2cc(O)ccc21`, the concentration for total growth inhibition (TGI) with MDA-N, with SK-OV-3 ovarian, with HS 578T breast, in the test on OVCAR-4 ovarian, in the test with HL-60(TB) leukemia and with HT29 colon was > 100 µM throughout.
Turning to `O=CCCCCCOCc1ccccc1`, the concentration for total growth inhibition (TGI) with MDA-N is > 100 µM; with SK-OV-3 ovarian it was > 100 µM; in the test on HS 578T breast, > 100 µM; in the test with OVCAR-4 ovarian it was > 100 µM; in the test with HL-60(TB) leukemia, > 43.7 µM; in the test with HT29 colon, > 100 µM.
Consider `N#Cc1ccccc1NC(=O)C(=O)C(C(=O)c1ccccc1F)C1OC(=O)c2ccccc21` (centres undefined), for which the TGI in the test on KM20L2 colon is > 100 µM; with DMS 273 small cell lung it was > 100 µM; in the test with SK-OV-3 ovarian, > 100 µM; in the test on SNB-78 CNS, 90.2 µM; in the test on LXFL 529 NSCLC, > 100 µM; with M19-MEL melanoma, > 100 µM. Further, the TGI in the test on DLD-1 colon was > 100 µM; with OVCAR-4 ovarian it was > 100 µM; in the test with HL-60(TB) leukemia it was 54.6 µM; with HT29 colon, > 100 µM; in the test on DMS 114 small cell lung, > 100 µM; in the test with XF 498 CNS it was > 100 µM.
Regarding `CC(C)(CO[C@H]1C[C@H]2CC[C@@]1(C)C2(C)C)[N+](=O)[O-]`, the total growth inhibition concentration (TGI) is 29.4 µM in the test on MDA-N; > 100 µM in the test with SK-OV-3 ovarian; 55.9 µM in the test on HS 578T breast; 76 µM in the test on OVCAR-4 ovarian; 22.5 µM with HL-60(TB) leukemia; 30.6 µM in the test with HT29 colon.
As for `COC(=N)C1(C#N)NC(c2ccsc2)C(C#N)(C#N)NC1c1ccsc1` (centres undefined), the total growth inhibition concentration (TGI) in the test with MDA-N, in the test with SK-OV-3 ovarian, in the test with HS 578T breast, in the test on OVCAR-4 ovarian, in the test on HL-60(TB) leukemia and in the test with HT29 colon was > 100 µM each time.
For the compound `NC(=O)[C@H](Cc1ccc(O)cc1)Nc1c(O)c2c(c(O)c1Cl)C(=O)C=CC2=O`, the concentration for total growth inhibition (TGI) in the test on MDA-N was 4.1 µM; with SK-OV-3 ovarian it was > 10 µM; in the test with HS 578T breast, > 9.16 µM; in the test on OVCAR-4 ovarian, 3.41 µM; with HL-60(TB) leukemia, 3.19 µM; in the test with HT29 colon, 6.2 µM.
For the compound `Cc1c(C)c2c(c(N)c1C#N)C(=O)N(N)C2=O`, the TGI in the test on MDA-N, in the test with SK-OV-3 ovarian, with HS 578T breast, in the test with OVCAR-4 ovarian, in the test with HL-60(TB) leukemia and in the test with HT29 colon was > 100 µM each time.
In the case of `CCN1CC2(C)CCC(OC)C34C5CC6CCC(O)(C5C(=O)O6)C(C(O)C23)C14` (centres undefined), the TGI in the test on MDA-N, in the test on SK-OV-3 ovarian, in the test on HS 578T breast, with OVCAR-4 ovarian, with HL-60(TB) leukemia and with HT29 colon was > 100 µM each time.
For the compound `N#Cc1nc(CCc2nc(C#N)c(N)o2)oc1N`, the total growth inhibition concentration (TGI) with MDA-N, in the test on SK-OV-3 ovarian, in the test with HS 578T breast, with OVCAR-4 ovarian, in the test on HL-60(TB) leukemia and with HT29 colon was > 10 µM each time.
Regarding `Cn1c(=O)c2c(nc3[nH]c(=O)c(Br)cn32)n(C)c1=O`, the TGI in the test on MDA-N, in the test on SK-OV-3 ovarian, with HS 578T breast, in the test with OVCAR-4 ovarian, in the test on HL-60(TB) leukemia and in the test on HT29 colon was > 100 µM each time.
